In PubChem BioAssay AID1549 (Sanford-Burnham Center for Chemical Genomics, 2009):
Activity calls are given as the source filed them. The rule behind the calls is not given here.

Target: Influenza A virus M2 proton channel (A/TW/4845/1999 H1N1)
Test: M2 proton channel binding, NMR based, influenza A virus H1N1 strain (AID 1549)
Conditions: NMR binding screen, M2 protein

SMILES | Kd
Cc1cc(NC(=O)c2cnn3cccnc23)no1 | > 4 mM (inactive)
Cc1cc(=O)[nH]c2ccccc12 | > 4 mM (inactive)
CCOC(=O)C1=C(C)N2CCN=C2S1 | > 4 mM (inactive)
O=C1CC(c2ccccc2)n2ncnc2N1 (stereo not given) | > 4 mM (inactive)
Cc1ccn(S(=O)(=O)c2ccc(F)cc2)n1 | > 4 mM (inactive)
O=C(O)c1cnc2n(c1=O)CCS2 | > 4 mM (inactive)
Cc1cc(Cl)ccc1NC(=O)C(N)=O | > 4 mM (inactive)
N#Cc1c(N)c(C(=O)c2ccccc2)n2c1CCC2 | > 4 mM (inactive)
CC(C)NC(=O)c1nc2ccccc2s1 | > 4 mM (inactive)
C=C1CCC2C(CC2(C)C)C(=O)CCC1O (stereo not given) | > 4 mM (inactive)
COc1ccc2c(c1OC)C(=O)O[C@H]2[C@H]1c2cc3c(cc2CCN1C)OCO3 | > 4 mM (inactive)
CNC(=O)c1cc(C)c(-c2ccccc2)s1 | > 4 mM (inactive)
CC1(C)CC[C@]2(C)CC[C@]3(C)C(=CCC4[C@@]5(C)CC[C@H](O)C(C)(C)C5CC[C@]43C)C2C1 (stereo not given in full) | > 4 mM (inactive)
O=C(O)CN1CCN(C2CCCC2)CC1 | > 4 mM (inactive)
C[n+]1ccc(C(=O)[O-])cc1 | > 4 mM (inactive)
CC(=O)O[C@@H]1CC2C(C)(C)[C@H](O)C[C@H](O)[C@]2(C)C2CC[C@@]3(C)C(=CC(=O)O[C@H]3c3ccoc3)[C@@]21C (stereo not given in full) | > 4 mM (inactive)
COc1ccc(S(=O)(=O)N2CCC(C(N)=O)CC2)cc1 | > 4 mM (inactive)
O=C(Nc1nnc(-c2ccccc2Cl)o1)c1ccco1 | > 4 mM (inactive)
Cc1nn(C)c(Cl)c1C(O)c1c(C)nn(C)c1Cl | > 4 mM (inactive)
c1n[nH]cc1-c1cn[nH]c1 | > 4 mM (inactive)
OCCNC(=S)Nc1ccccc1 | > 4 mM (inactive)
CNC(=O)C1CCCN(S(C)(=O)=O)C1 (stereo not given) | > 4 mM (inactive)
CSc1nc(C)cc(Oc2ccc(=O)n(C)n2)n1 | > 4 mM (inactive)
NC(=O)CN1CC(=O)NC(=O)C1 | > 4 mM (inactive)

SMILES | Kd
O=c1oc(-c2ccccc2)nc2c1cnn2-c1ccccc1 | > 4 mM (inactive)
CCCC(=O)N1CCSCC1 | > 4 mM (inactive)
COC(=O)CSc1n[nH]c(N)n1 | > 4 mM (inactive)
Cc1noc(-c2ccccc2)c1CO | > 4 mM (inactive)
COc1cc(O)c2c(c1)C(=O)c1cc(C)cc(O)c1C2=O | > 4 mM (inactive)
C=C[C@](C)(O)CCC=C(C)C | > 4 mM (inactive)
N#CCSc1nnc2ccc3ccccc3n12 | > 4 mM (inactive)
Cc1cc(C)cc(C(=O)N2CCC(C(N)=O)CC2)c1 | > 4 mM (inactive)
NCc1ccccc1N1CCCCC1 | > 4 mM (inactive)
COc1ccc(C2CC(=O)c3ccc(OC)cc3O2)cc1 (stereo not given) | > 4 mM (inactive)
Cn1c(NCc2ccco2)nc2ccccc21 | > 4 mM (inactive)
Cc1ccc(C)n1NC(=O)c1ccco1 | > 4 mM (inactive)
CCSc1nc(C)c(CC)c(C)c1C(N)=O | > 4 mM (inactive)
CSc1ccccc1NC(=O)c1cnccn1 | > 4 mM (inactive)
O=c1[nH]cc(NCc2ccco2)c(=O)[nH]1 | > 4 mM (inactive)
Cc1ccc(SCCN2C(=O)NC(C)(C)C2=O)cc1 | > 4 mM (inactive)
Cc1ccc2nc(NC(=O)CN3CCOCC3)sc2c1 | > 4 mM (inactive)
Cc1cccc(NC(=O)Nc2cc(C)on2)c1 | > 4 mM (inactive)
CC1(C)NC(=O)N(CN2CCOCC2)C1=O | > 4 mM (inactive)
COc1c2occc2cc2ccc(=O)oc12 | > 4 mM (inactive)
O=C(Nc1ccccc1C(F)(F)F)N1CCCCCC1 | > 4 mM (inactive)
CC1(C)Cc2c(c(-c3ccco3)[nH]c(=O)c2C#N)CO1 | > 4 mM (inactive)
Cn1c(O)c(C=NCC2CCNCC2)c(=O)n(C)c1=O | > 4 mM (inactive)
Cn1cnc2ccc([N+](=O)[O-])cc2c1=O | > 4 mM (inactive)

SMILES | Kd
COC(=O)c1ccc2nc[nH]c2c1 | > 4 mM (inactive)
Nc1ncnc(NC2CCS(=O)(=O)C2)c1[N+](=O)[O-] (stereo not given) | > 4 mM (inactive)
CC(=O)c1cc(CN2C(=O)c3ccccc3C2=O)cs1 | > 4 mM (inactive)
CC1CC2(NC(=O)NC2=O)C(C)CN1C (stereo not given) | > 4 mM (inactive)
CC(=O)CC1CCCCN1 (stereo not given) | > 4 mM (inactive)
O=C(c1cc2ccccc2o1)N1CCCCCC1 | > 4 mM (inactive)
CCCc1ncc(C(O)c2cccc3ccccc23)n1C (stereo not given) | > 4 mM (inactive)
CC(=O)c1c(C)nc(-c2ccc(F)cc2)n1O | > 4 mM (inactive)
O=C1c2ccccc2-c2ncnc3cccc1c23 | > 4 mM (inactive)
O=S1(=O)CCC2CC=CCC21 (stereo not given) | > 4 mM (inactive)
c1ccc(CCc2nc(-c3ccccn3)no2)cc1 | > 4 mM (inactive)
Cc1n[nH]c(C)c1CC(=O)O | > 4 mM (inactive)
OCCCc1nc2ccccc2[nH]1 | > 4 mM (inactive)
Cc1cc(NC(=O)NCCCSc2nncn2C)no1 | > 4 mM (inactive)
COc1cc(OC)cc(-c2nc(N)n[nH]2)c1 | > 4 mM (inactive)
NCc1c[nH]c2ccccc12 | > 4 mM (inactive)
O=c1/c(=C/c2cccs2)sc2ncnn12 | > 4 mM (inactive)
C[C@]12CC(=O)C3C(CC[C@@H]4C[C@H](O)CC[C@]34C)C1CC[C@]2(O)C(=O)CO (stereo not given in full) | > 4 mM (inactive)
CC(=O)Nc1nnc(-c2ccccc2S(C)(=O)=O)o1 | > 4 mM (inactive)
O=C(O)C1=C[C@@H](O)[C@@H](O)[C@H](O)C1 | > 4 mM (inactive)
COC(=O)C[C@H]1C(C)(C)C(=O)[C@@H]2CC3C4=CC(=O)O[C@@H](c5ccoc5)[C@]4(C)CCC3C1(C)C2=O (stereo not given in full) | > 4 mM (inactive)
COc1c(-c2coc3cc4c(cc3c2=O)CC(OC(C)=O)C(C)(C)O4)ccc2c1C=CC(C)(C)O2 (stereo not given) | > 4 mM (inactive)
CCN1CCN(c2ncnc3c2nnn3C)CC1 | > 4 mM (inactive)
OCC1Cc2ccccc2N1 (stereo not given) | > 4 mM (inactive)

SMILES | Kd
N=Cc1c(O)n(-c2cccc(Cl)c2)c(=O)[nH]c1=O | > 4 mM (inactive)
Nc1c(/C=C2\C=Nc3ccccc32)c(=O)nc2scnn12 | > 4 mM (inactive)
CCSc1nc(N)c(NC(=O)c2ccco2)c(=O)[nH]1 | > 4 mM (inactive)
O=S(=O)(c1cccc(Cl)c1)N1CCCC1 | > 4 mM (inactive)
O=C(O)c1cccnc1N1CCOCC1 | > 4 mM (inactive)
O=C(O)Cc1n[nH]c(=O)c2ccccc12 | > 4 mM (inactive)
COc1ccc2c(c1)OCc1c-2oc2cc(OC)ccc12 | > 4 mM (inactive)
O=c1cc(-c2ccccc2)oc2c(O)c(O)ccc12 | > 4 mM (inactive)
O=C(O)c1coc2c1C(=O)CCC2 | > 4 mM (inactive)
COc1ccc2cc3[n+](cc2c1OC)CCc1cc2c(cc1-3)OCO2 | > 4 mM (inactive)
NC(=O)C1CCN(C(=O)c2ccccc2)CC1 | > 4 mM (inactive)
COc1ccc(C2(C)CC(=O)NC2=O)cc1 (stereo not given) | > 4 mM (inactive)
CC1(C)NC(=O)N(CCOc2ccc3c(c2)CCC3)C1=O | > 4 mM (inactive)
Cc1ccc(NC(=O)C(=O)Nc2ccccn2)cc1 | > 4 mM (inactive)
CC12CCC3C(CC3(C)C)C(C)(CCC1=O)O2 (stereo not given) | > 4 mM (inactive)
NS(=O)(=O)c1ccc(NC(=O)C(F)(F)F)cc1 | > 4 mM (inactive)
Cn1nc(C(=O)Nc2cccnc2)c2ccccc2c1=O | > 4 mM (inactive)
C[C@@H]1C(=O)O[C@H]2[C@H]1CC[C@@]1(C)C=CC(=O)[C@@]3(C)O[C@@]213 | > 4 mM (inactive)
CC(=O)c1ccc(N2C(=O)C(C(C)C)NC2=S)cc1 (stereo not given) | > 4 mM (inactive)
NS(=O)(=O)c1ccccc1Cl | > 4 mM (inactive)
O=C(O)/C=C/C(=O)Nc1ccccc1C(F)(F)F | > 4 mM (inactive)
O=C1CNCc2[nH]c3ccccc3c2N1c1ccccc1 | > 4 mM (inactive)
N[C@@H](Cc1ccc(O)c(O)c1)C(=O)O | > 4 mM (inactive)
CC(=O)O[C@@H]1CC2C(C)(C)CCC(=O)[C@]2(C)C2CC[C@@]3(C)[C@H](c4ccoc4)OC(=O)C4OC43[C@@]21C (stereo not given in full) | > 4 mM (inactive)

SMILES | Kd
CC(=O)NC(=S)Nc1ccc(C(C)=O)cc1 | > 4 mM (inactive)
O=C(CCc1ccc(O)cc1)c1c(O)cc(O)cc1O[C@@H]1O[C@H](CO)[C@@H](O)[C@H](O)[C@H]1O | > 4 mM (inactive)
COc1ccc2[nH]c(O)c(NC(C)=O)c2c1 | > 4 mM (inactive)
O=C(O)Cn1nnnc1-c1ccc(F)cc1 | > 4 mM (inactive)
CCc1ccc2oc(-c3cc(N)cc(C)c3O)nc2c1 | > 4 mM (inactive)
O=C(O)c1ccc(CN2CCCCC2)o1 | > 4 mM (inactive)
OC1CC2CCC1C2 (stereo not given) | > 4 mM (inactive)
CC(C)=CC1C(C(=O)O)C1(C)C (stereo not given) | > 4 mM (inactive)
C=CCNC(=O)c1nn2cccnc2c1Cl | > 4 mM (inactive)
O=C(NC(=S)NC1CCSC1=O)c1ccco1 (stereo not given) | > 4 mM (inactive)
O=C(Oc1ccc(-c2nnco2)cc1)N1CCOCC1 | > 4 mM (inactive)
CN1C(=O)c2ccc(C(=O)NC3CCCCC3)cc2C1=O | > 4 mM (inactive)
O=C1CCC(=O)N1c1nc2ccccc2s1 | > 4 mM (inactive)
Cc1onc(-c2ccccc2)c1C(=O)O | > 4 mM (inactive)
Cn1nnc2cc(C(=O)NC3=NCCS3)ccc21 | > 4 mM (inactive)
CC(=O)NC(=S)Nc1ccccc1C(N)=O | > 4 mM (inactive)
Cc1nnc(SCc2ccccc2)[nH]c1=O | > 4 mM (inactive)
Nc1c(Nc2ccccc2)c2ccccc2oc1=O | > 4 mM (inactive)
COC(=O)c1scc(C)c1N | > 4 mM (inactive)
CC(=O)OC1CCC2(O)CC1(C)CCC1C2CC1(C)C (stereo not given) | > 4 mM (inactive)
NC(=O)NC1NC(=O)NC1=O (stereo not given) | > 4 mM (inactive)
Cc1cc(S(=O)(=O)N2CCOCC2)ccc1F | > 4 mM (inactive)
Cc1nc(-c2ccccc2)ncc1C(=O)O | > 4 mM (inactive)
O=C(CSc1cccc2cccnc12)N1CCCC1 | > 4 mM (inactive)
